Data from paper PMC3465485 (Antiviral research, 2012).
Entries after “also recorded” stand apart in the source; their conditions may differ. Like-named read-outs stand apart in the source and are kept apart here.

Key:
[1] = target: A/HK-H275Y neuraminidase (Influenza A virus (A/Hong Kong/2369/2009(H1N1)), UniProt C6KQ69); assay: biochemical
[2] = tested on: Influenza A/Mississippi/03/2001 (H1N1) H275Y (A/MS-H275Y) virus
[3] = tested on: A/Hong Kong/2369/2009 (H1N1) H275Y (A/HK-H275Y) virus
[4] = target: A/MS-H275Y neuraminidase (Influenza A virus (A/Mississippi/03/2001(H1N1)), UniProt C7FPR5, H275Y); type: biochemical
[5] = tested on: influenza A/HK-H275Y virus neuraminidase; settings: NA-Star assay, ref Nguyen et al., 2010a; cited from earlier work
[6] = tested on: influenza A/MS-H275Y virus; design: species or system BALB/c mice; settings: mouse, in vivo
[7] = tested on: influenza A/HK-H275Y virus; design: species or system BALB/c mice; settings: mouse, in vivo
[8] = tested on: influenza A/WSN/33 (H1N1) H275Y virus; settings: A/WSN/33 (H1N1) H275Y in mice, up to 10 mg/kg/day; ref Baz et al. (2009); cited from earlier work
[9] = read-out: EC50 (50% virus-inhibitory concentration)

Compound: Peramivir
- IC50 [1]: 29 ± 2.3 nM
- SI (CC50/EC50) [2]: >12
- antiviral activity in cell culture (in words) [2]: decreased sensitivity
- EC50 [2, 9]: 8.1 ± 5.2 µM
- EC50 ([2]; read-out: inhibitory concentration against the H275Y viruses in cell culture): ~8 µM
- EC50 [3]: 7.9 ± 3 µM
- SI (CC50/EC50) [3]: >12
- antiviral activity in cell culture (in words) [3]: decreased sensitivity
- IC50 [4]: 38 ± 1 nM
- sensitivity of the viral neuraminidases (in words) [4]: resistant
- IC50 [5]: 9.2 µM

Compound: CCC(CC)O[C@@H]1C=C(C(=O)O)C[C@H](N)[C@H]1NC(C)=O [Oseltamivir Carboxylate, Oseltamivir carboxylate]
- IC50 ([1]; IC50): > 100 nM
- EC50 [2, 9]: > 100 µM
- EC50 [3]: > 100 µM
- sensitivity of the viral neuraminidases (in words) [4]: resistant
- IC50 [5]: 78 µM

Compound: NC(=O)c1ncn([C@@H]2O[C@H](CO)[C@@H](O)[C@H]2O)n1 [Ribavirin]
- survival effect (in words) [6]: not effective
- EC50 [2, 9]: 25 ± 4.6 µM
- lung virus titer versus placebo (in words) ([7]; po): significantly reduced virus titers; also recorded: not significantly lower than placebo
- body weight change (in words) ([7]; po, 75 mg/kg/day): Weight decline was least severe
- day of infection after which weight gain started ([7]; po, 75 mg/kg/day): > 8 days
- survival effect (in words) ([7]; po, 75 mg/kg/day): fully protective
- EC50 [3]: 33 ± 13 µM

Compound: CC(N)C12CC3CC(CC(C3)C1)C2 (stereo not shown) [Rimantadine]
- survival effect (in words) [6]: no significant effect
- SI (CC50/EC50) [2]: 2200
- EC50 [2, 9]: 0.01 ± 0.003 µM
- EC50 [3]: > 22 µM
- SI (CC50/EC50) [3]: 0
- antiviral activity in cell culture (in words) [3]: not active

Compound: NC12CC3CC(CC(C3)C1)C2 [Amantadine]
- survival effect (in words) [6]: No significant effect
- survival effect (in words) ([6]; po, 3 mg/kg/day): no effect
- protection from death ([6]; po, 30 mg/kg/day): 60%
- protection from death ([6]; po, 100 mg/kg/day): 100%
- protective activity ([6]; po, 100 mg/kg/day): 100%
- EC50 [2, 9]: 0.3 ± 0.05 µM
- EC50 [3]: > 100 µM
- antiviral activity in cell culture (in words) [3]: not active

Compound: CC(=O)N[C@H]1[C@H]([C@H](O)[C@H](O)CO)OC(C(=O)O)=C[C@@H]1N=C(N)N [Zanamivir]
- survival effect (in words) [6]: ineffective; also recorded: delayed the time to death significantly but did little to prevent mortality
- IC50 ([1]; IC50): 0.9 ± 0.2 nM
- antiviral activity in cell culture (in words) [2]: highly sensitive
- EC50 [2, 9]: 0.24 ± 0.08 µM
- EC50 [3]: 0.36 ± 0.58 µM
- antiviral activity in cell culture (in words) [3]: highly sensitive
- sensitivity of the viral neuraminidases (in words) [4]: sensitive
- IC50 [5]: 0.43 µM

Compound: CCOC(=O)C1=C[C@@H](OC(CC)CC)[C@H](NC(C)=O)[C@@H](N)C1 [Oseltamivir, Oseltamivir phosphate]
- protection [6]: up to 60%
- survival effect (in words) [6]: not active
- survival effect (in words) ([6]; po): ineffective
- benefit (in words) ([6]; po, 25 mg/kg/day): no benefit
- survival (protection from death) ([6]; po, 100 mg/kg/day): 30%
- survival (protection from death) ([6]; po, 300 mg/kg/day): 60%
- efficacy in treating the infection (in words) [8]: ineffective
- mortality rate [8]: 75%
- antiviral activity in cell culture (in words) [2]: resistant
- body weight change (in words) [7]: did not fall as rapidly as in the lower dosage and placebo groups
- day of infection after which body weights began to increase [7]: > 10 days
- survival effect (in words) [7]: not significantly effective
- benefit (in words) ([7]; po, 25 mg/kg/day): no benefit
- survival (protection from death) ([7]; po, 100 mg/kg/day): 50%
- survival (protection from death) ([7]; po, 300 mg/kg/day): 70%
- antiviral activity in cell culture (in words) [3]: resistant
